# Data published in patent US10940188B2, “Compounds and methods for treatment and prevention of Flavivirus infection” (priority 2016, dated 2021).
# Tested on: ZIKV-induced cell death in human astrocytes
# Assay: ATP cell viability assay for ZIKV-induced cell death, human astrocytes
# Assay type: cell-based
# Conditions: ZIKV-infected human astrocytes
row,Compound,"Cell viability (efficacy, %) Astrocyte [%]"
1,Cc1nc(-c2ccc(OCC(C)C)c(C#N)c2)sc1C(=O)O [Febuxostat],0.0
2,CC(/C=C1\SC(=S)N(CC(=O)O)C1=O)=C\c1ccccc1 [Epalrestat],0.0
3,O=C(/C=C/C=C/c1ccc2c(c1)OCO2)N1CCCCC1 [Piperine],0.0

# Tested on: ZIKV-induced caspase 3/7 activity in human astrocytes
# Assay: Caspase 3/7 activity assay, ZIKV-infected human astrocytes
# Assay type: cell-based
# Conditions: Astrocyte; ZIKV-infected human astrocytes; read-out: Caspase 3 (IC50, uM) Astrocyte
# Experimental: (§1) Caspase-Glo 3/7 assay kit (catalog number G8092; Promega, Madison, Wis.) was used to detect caspase 3/7 activity. Reagents were reconstituted as described in the protocol from the manufacturer. Polystyrene plates (384-well and 1536-well; regular tissue culture treated and PDL coated) were purchased from Greiner Bio-One (Monroe, N.C.). Cells were seeded in 384- and 1536-well assay plates and cultured at 37° C. with 5% CO2 for 16 hours. ZIKV solution was added to cells, followed by incubation at 37° C. with 5% CO2 for 6 hours. Caspase-Glo 3/7 was added to each well, unless otherwise specified, and incubated at room temperature for 30 minutes. The luminescence intensity of the assay plates was measured using a ViewLux plate reader (PerkinElmer). Data were normalized by using the cell-containing wells without ZIKV as a negative control (0% induction of caspase 3/7 activity) and wells containing ZIKV infected cells that induced caspase 3/7 activity were used as a positive control (100% induction of caspase 3/7 activity). […]
# (§2) Caspase-Glo 3/7 assay kit (Promega) was used to detect caspase 3/7 activity. Reagents were reconstituted as described in the protocol from the manufacturer. Cells were seeded in 384- and 1536-well assay plates and cultured at 37° C. with 5% CO2 for 16 hours. ZIKV solution was added to cells, followed by incubation at 37° C. with 5% CO2 for 6 hours. Caspase-Glo 3/7 was added to each well at a 1:1 ratio, unless otherwise specified, and incubated at room temperature for 30 minutes. The luminescence intensity of the assay plates was measured using a ViewLux plate reader (PerkinElmer). Data was normalized by using the cell-containing wells without ZIKV as a negative (0% induction of caspase 3/7 activity) control and wells containing ZIKV infected cells that induced caspase 3/7 activity were used as a positive control (100% induction of caspase 3/7 activity). […]
row,IC50 [µM],Compound
1,2.31,Cc1nc(-c2ccc(OCC(C)C)c(C#N)c2)sc1C(=O)O [Febuxostat]
2,19.5,CC(/C=C1\SC(=S)N(CC(=O)O)C1=O)=C\c1ccccc1 [Epalrestat]
3,20.6,O=C(/C=C/C=C/c1ccc2c(c1)OCO2)N1CCCCC1 [Piperine]

# Same assay, conditions: Astrocyte; ZIKV-infected human astrocytes; read-out: Caspase 3 (efficacy, %) Astrocyte
row,Compound,Emax [%]
1,Cc1nc(-c2ccc(OCC(C)C)c(C#N)c2)sc1C(=O)O [Febuxostat],84.8
2,CC(/C=C1\SC(=S)N(CC(=O)O)C1=O)=C\c1ccccc1 [Epalrestat],93.3
3,O=C(/C=C/C=C/c1ccc2c(c1)OCO2)N1CCCCC1 [Piperine],73.9

# Tested on: ZIKV-induced caspase 3/7 activity in SNB-19 cells
# Assay: Caspase 3/7 activity assay, ZIKV-infected SNB-19 cells
# Assay type: cell-based
# Conditions: Homo sapiens; ZIKV-infected SNB-19 cells; read-out: Caspase 3 (IC50, uM) SNB-19
# Experimental: as §1, §2
row,IC50 [µM],Compound
1,2.91,Cc1nc(-c2ccc(OCC(C)C)c(C#N)c2)sc1C(=O)O [Febuxostat]
2,20.6,CC(/C=C1\SC(=S)N(CC(=O)O)C1=O)=C\c1ccccc1 [Epalrestat]
3,19.5,O=C(/C=C/C=C/c1ccc2c(c1)OCO2)N1CCCCC1 [Piperine]

# Same assay, conditions: Homo sapiens; ZIKV-infected SNB-19 cells; read-out: Caspase 3 (efficacy, %) SNB-19
row,Compound,Emax [%]
1,Cc1nc(-c2ccc(OCC(C)C)c(C#N)c2)sc1C(=O)O [Febuxostat],104
2,CC(/C=C1\SC(=S)N(CC(=O)O)C1=O)=C\c1ccccc1 [Epalrestat],79.2
3,O=C(/C=C/C=C/c1ccc2c(c1)OCO2)N1CCCCC1 [Piperine],75.5

# Tested on: ZIKV-induced cell death in SNB-19 cells
# Assay: ATP cell viability assay for ZIKV-induced cell death, SNB-19 cells
# Assay type: cell-based, human
# Conditions: Homo sapiens; ZIKV-infected SNB-19 cells; read-out: Cell viability (IC50, uM) SNB-19
# Experimental: (§3) The reagent was reconstituted and prepared as described by the manufacturer. In order to measure the cell death caused by ZIKV infection, cells were cultured for 16 hours at 37° C. with 5% CO2 in assay plates, followed by the addition of ZIKV solution and incubation at 37° C. with 5% CO2 for 72 hours. ATPlite, the ATP monitoring reagent, was then added to the assay plates and they were incubated for 15 minutes. The resulting luminescence was measured using the ViewLux plate reader (Perkin Elmer). Data were normalized using the wells without cells as a control for 100% cell killing, and cell-containing wells without ZIKV infection were used as full cell viability (0% cell killing). […]
# as §3, with “The ATPlite luminescence assay system assay kit (PerkinElmer) was used to determine cell viability. The reagent” for “The reagent”, “by the manufacture. In order” for “by the manufacturer. In order”, “followed by addition of” for “followed by the addition of”, “plates and incubated for” for “plates and they were incubated for”, “Elmer). Data was normalized using” for “Elmer). Data were normalized using”
row,Compound,IC50 [µM]
1,Cc1nc(-c2ccc(OCC(C)C)c(C#N)c2)sc1C(=O)O [Febuxostat],3.66
2,CC(/C=C1\SC(=S)N(CC(=O)O)C1=O)=C\c1ccccc1 [Epalrestat],5.48

# Same assay, conditions: ZIKV-infected SNB-19 cells
row,Compound,"Cell viability (efficacy, %) SNB-19 [%]"
1,Cc1nc(-c2ccc(OCC(C)C)c(C#N)c2)sc1C(=O)O [Febuxostat],68.4
2,CC(/C=C1\SC(=S)N(CC(=O)O)C1=O)=C\c1ccccc1 [Epalrestat],82.1
3,O=C(/C=C/C=C/c1ccc2c(c1)OCO2)N1CCCCC1 [Piperine],0.0

# Tested on: ZIKV-induced caspase 3/7 activity in hNPCs
# Assay: Caspase 3/7 activity assay, ZIKV-infected hNPCs
# Assay type: cell-based
# Conditions: Homo sapiens; ZIKV-infected hNPCs; read-out: Caspase 3 (IC50, uM) NPCs
# Experimental: Caspase-Glo 3/7 assay kit (catalog number G8092; Promega, Madison, Wis.) was used to detect caspase 3/7 activity. Reagents were reconstituted as described in the protocol from the manufacturer. Polystyrene plates (384-well and 1536-well; regular tissue culture treated and PDL coated) were purchased from Greiner Bio-One (Monroe, N.C.). Cells were seeded in 384- and 1536-well assay plates and cultured at 37° C. with 5% CO2 for 16 hours. ZIKV solution was added to cells, followed by incubation at 37° C. with 5% CO2 for 6 hours. Caspase-Glo 3/7 was added to each well, unless otherwise specified, and incubated at room temperature for 30 minutes. The luminescence intensity of the assay plates was measured using a ViewLux plate reader (PerkinElmer). Data were normalized by using the cell-containing wells without ZIKV as a negative control (0% induction of caspase 3/7 activity) and wells containing ZIKV infected cells that induced caspase 3/7 activity were used as a positive control (100% induction of caspase 3/7 activity).
# Human NPCs were seeded onto PDL coated 1536-well assay plates at 250 cells per 3 μl/well and incubated at 37° C. in 5% CO2 for 16 hours. Test compounds dissolved in DMSO were transferred to assay plates at a volume of 23 nl/well by an automated pintool workstation (Wako Automation, San Diego, Calif.). Compounds were incubated with cells for 30 minutes at 37° C. in 5% CO2, immediately followed by the addition of 2 μl/well of ZIKV. Incubation time of compound-treated cells with ZIKV varied based on assay format. Experiments measuring virus-induced caspase 3/7 activity required a 6 hour incubation of ZIKV in the presence compounds at 37° C. in 5% CO2. Following this incubation, 3.5 μl/well of caspase 3/7 reagent mixture was added to assay plates. The plates were incubated for 30 minutes at room temperature, and the resultant luminescence signal was measured using a ViewLux plate reader (Perkin Elmer). Experiments measuring virus-induced cell death required a 72-hour incubation of ZIKV in the presence of compounds at 37° C. in 5% CO2. Following this incubation, 3.5 μl/well of ATP content detection reagent was added to assay plates, incubated for 30 minutes at the room temperature, and the resultant luminescence signal was measured in a ViewLux plate reader.
# Caspase-Glo 3/7 assay kit (Promega) was used to detect caspase 3/7 activity. Reagents were reconstituted as described in the protocol from the manufacturer. Cells were seeded in 384- and 1536-well assay plates and cultured at 37° C. with 5% CO2 for 16 hours. ZIKV solution was added to cells, followed by incubation at 37° C. with 5% CO2 for 6 hours. Caspase-Glo 3/7 was added to each well at a 1:1 ratio, unless otherwise specified, and incubated at room temperature for 30 minutes. The luminescence intensity of the assay plates was measured using a ViewLux plate reader (PerkinElmer). Data was normalized by using the cell-containing wells without ZIKV as a negative (0% induction of caspase 3/7 activity) control and wells containing ZIKV infected cells that induced caspase 3/7 activity were used as a positive control (100% induction of caspase 3/7 activity).
# Human NPCs were seeded onto PDL coated 1536-well assay plates at 250 cells per 3 μl/well and incubated at 37° C. in 5% CO2 for 16 hours. Test compounds dissolved in DMSO were transferred to assay plates at a volume of 23 nl/well by an automated pintool workstation (Wako Automation, San Diego, Calif.). Compounds were incubated with cells for 30 minutes at 37° C. in 5% CO2, immediately followed by the addition of 2 μl/well of ZIKV. Incubation time of compound-treated cells with ZIKV varied based on assay format. Experiments measuring virus induced caspase 3/7 activity required a 6 hour incubation of ZIKV in the presence compounds at 37° C. in 5% CO2. […]
row,IC50 [µM],Compound
1,3.88,Cc1nc(-c2ccc(OCC(C)C)c(C#N)c2)sc1C(=O)O [Febuxostat]
2,15.5,CC(/C=C1\SC(=S)N(CC(=O)O)C1=O)=C\c1ccccc1 [Epalrestat]
3,13.8,O=C(/C=C/C=C/c1ccc2c(c1)OCO2)N1CCCCC1 [Piperine]

# Same assay, conditions: Homo sapiens; ZIKV-infected hNPCs; read-out: Caspase 3 (efficacy, %) NPCs
row,Compound,Emax [%]
1,Cc1nc(-c2ccc(OCC(C)C)c(C#N)c2)sc1C(=O)O [Febuxostat],83.2
2,CC(/C=C1\SC(=S)N(CC(=O)O)C1=O)=C\c1ccccc1 [Epalrestat],72.1
3,O=C(/C=C/C=C/c1ccc2c(c1)OCO2)N1CCCCC1 [Piperine],66
